# Test system: Erysiphe graminis f.sp. tritici
# Experiment: Erysiphe graminis f.sp. tritici (wheat powdery mildew) leaf disk assay
# Type: in vivo
# Conditions: Blumeria graminis, foliar, 96 h, preventive, four days after inoculation, read-out: control of fungal infection, Erysiphe graminis fsp. tritici
row,SMILES,pest or weed control at 200 ppm [%]
1,N#Cc1ccc(OC2C[C@H]3CC[C@@H](C2)N3c2ncnc3sccc23)cc1 (some centres unmarked) [Example 2.22],≥ 80
2,Fc1cccc(OC2C[C@H]3CC[C@@H](C2)N3c2ncnc3sccc23)c1F (some centres unmarked) [Example 2.24],≥ 80
3,c1ccc2c(c1)CCC2c1ccc(OC2C[C@H]3CC[C@@H](C2)N3c2ncnc3sccc23)cc1 (some centres unmarked) [Example 2.53],≥ 80
4,CCCCCCCCC1COC2(CC3CCC(C2)N3c2ncnc3sccc23)O1 (centres unmarked) [Example 6.1],≥ 80
5,CCc1ncnc(N2[C@@H]3CC[C@H]2CC(Oc2ccc(F)c(F)c2)C3)c1Cl (some centres unmarked) [Example 2.125],≥ 80
6,CC(=O)c1cc(Cl)c2ccccc2c1OC1C[C@H]2CC[C@@H](C1)N2c1ncnc2sccc12 (some centres unmarked) [Example 2.59],≥ 80
7,Clc1ccc(Oc2cccc(OC3C[C@H]4CC[C@@H](C3)N4c3ncnc4sccc34)c2)cc1 (some centres unmarked) [Example 2.15],≥ 80
8,CCc1ncnc(C(C)c2ncnc(N3C4CCC3CC(=NOCc3ccccc3)C4)c2Cl)c1Cl (centres unmarked) [Example 5.77],≥ 80
9,Cc1c(CON=C2CC3CCC(C2)N3c2ncnc3sccc23)ccc2ccccc12 [Example 5.176],≥ 80
10,CCc1ncnc(N2C3CCC2CC(=NOCc2cc(F)ccc2C(F)(F)F)C3)c1Cl [Example 5.101],≥ 80
11,CCc1ncnc(N2[C@@H]3CC[C@H]2CC(Oc2cccc(C(F)(F)F)c2F)C3)c1Cl (some centres unmarked) [Example 2.148],≥ 80
12,Cc1nsc(N2[C@@H]3CC[C@H]2CC(Oc2ccc(C(F)(F)F)cn2)C3)n1 (some centres unmarked) [Example 2.203],≥ 80
13,CCc1ncnc(N2[C@@H]3CC[C@H]2CC(Oc2ccc(C(=O)c4ccccc4)cc2)C3)c1Cl (some centres unmarked) [Example 2.141],≥ 80
14,ClCc1cccc(CON=C2CC3CCC(C2)N3c2ncnc3sccc23)c1 [Example 5.200],≥ 80
15,Cc1nsc(Oc2ccc(OC3C[C@H]4CC[C@@H](C3)N4c3ncnc4scc(C)c34)cc2)n1 (some centres unmarked) [Example 2.72],≥ 80
16,COc1nc(-c2ccc(C)cc2)nc(ON=C2CC3CCC(C2)N3c2ncnc3sccc23)c1C [Example 5.251],≥ 80
17,c1cncc(CON=C2CC3CCC(C2)N3c2ncnc3sccc23)c1 [Example 5.133],≥ 80
18,CCc1ncnc(N2C3CCC2CC(=NOCc2ccccc2CCl)C3)c1Cl [Example 5.42],≥ 80
19,CCc1ncnc(N2[C@@H]3CC[C@H]2CC(Oc2ccc(C(C)(C)C)cc2C(C)(C)C)C3)c1Cl (some centres unmarked) [Example 1.221],≥ 80
20,Cc1ccc(-c2c(C)cccc2C)c(C)c1OC1C[C@H]2CC[C@@H](C1)N2c1ncnc2sccc12 (some centres unmarked) [Example 2.49],≥ 80
21,CCc1ncnc(N2[C@@H]3CC[C@H]2CC(Oc2ccccc2C(F)(F)F)C3)c1Cl (some centres unmarked) [Example 2.146],≥ 80
22,CCc1ncnc(N2[C@@H]3CC[C@H]2CC(Oc2ccc(Br)cc2C(C)=O)C3)c1Cl (some centres unmarked) [Example 2.182],≥ 80
23,CCc1ncnc(N2C3CCC2CC(=NOc2nc(N(C)C)cc(C(F)(F)F)n2)C3)c1Cl [Example 5.72],≥ 80
24,CCc1ncnc(N2C3CCC2CC(=NOc2nc(SC)nc(Cl)c2-c2ccccc2)C3)c1Cl [Example 5.125],≥ 80
25,Cn1nc(C(F)(F)F)c(Cl)c1C(=O)N1[C@@H]2CC[C@H]1CC(Oc1cc(C(F)(F)F)ccn1)C2 (some centres unmarked) [Example 2.220],≥ 80
26,CCc1ncnc(N2[C@@H]3CC[C@H]2CC(Oc2ccc(OC)cc2Cl)C3)c1Cl (some centres unmarked) [Example 2.142],≥ 80
27,Cc1ccc(C(C)(C)C)c(OC2C[C@H]3CC[C@@H](C2)N3c2ncnc3sccc23)c1 (some centres unmarked) [Example 2.43],≥ 80
28,CCc1ncnc(N2C3CCC2CC(=NOCc2ccc(C(C)(C)C)cc2)C3)c1Cl [Example 5.26],≥ 80
29,CCc1ncnc(N2C3CCC2CC(=NOc2cc(Cl)nc(Cl)n2)C3)c1Cl [Example 5.71],≥ 80
